pIC50, pKd: −log10 of the molar value.
Legend:
[1] = biological target: T1, human S100A9 binding to human RAGE (Homo sapiens, UniProt P06702); assay: SPR: inhibition of human S100A9 binding to immobilised human RAGE; conditions: read-out: S100A9 binding IC50, hS100A9 RAGE; Table S1
T1 construct: purchased R&D Systems (RAGE/Fc); S100A9 made in house
T1 sequence (P06702 1-114): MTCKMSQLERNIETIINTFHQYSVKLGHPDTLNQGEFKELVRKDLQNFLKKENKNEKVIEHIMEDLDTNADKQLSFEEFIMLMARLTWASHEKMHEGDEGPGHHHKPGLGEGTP
Description: (§1) The SPR analysis was carried out with the Biacore 3000 system (GE Healthcare). Sensor chips, amine coupling kit, immobilization and running buffers, and regeneration solutions were obtained from GE Healthcare. Working solutions of all reagents used for Biacore analysis were prepared in 0.01 M Hepes, 0.15 M NaCl (pH 7.4) containing 0.005% v/v Surfactant P-20 (HBS-P; GE Healthcare) by buffer exchange on Fast Protein Desalting Micro-Spin Columns from Pierce. ABR-215757 was immobilised onto a CM5 chip through an amino-linker (ABR-224649). […] Activity of ligands after immobilisation was tested by injecting specific antibodies (unpublished data). In some experiments, S100A9 was immobilized either by random amine coupling or with a known orientation (i.e., by sulhydryl group conjugation to the only cysteine in S100A9 at position 3).
(§2) Binding to the various surfaces was performed by injecting the analyte at a flow rate of 30 μl/min in a physiological buffer (HBS-P) containing 1 mM Ca^2+ and 10 μM Zn^2+ as proposed for S100A8/9 by Robinson et al.. A typical analysis cycle consists of: (1) pumping running buffer for 1 min to obtain a stable baseline; (2) injection of sample for an appropriate period of time (association); (3) pumping running buffer for 2.5 min (dissociation); (4) injection of a short pulse (30 s) of 15 μl 10 mM glycine-HCl (pH 2.0) (regeneration); and (5) pumping running buffer for 2 min (stabilisation after regeneration) at a flow rate of 30 μl/min. […] In one experiment, S100A9 was injected into a buffer with a fixed Ca^2+ concentration (1 mM) and Zn^2+ in the range 0–50 μM. In a second experiment, Ca^2+ was varied from 0–2 mM at a fixed Zn^2+ concentration (10 μM). In subsequent analyses, regeneration was carried out under more mild conditions, i.e., by injecting 30 μl of HBS-P containing 3 mM EDTA (HBS-EP; GE Healthcare) for 60 s, to prolong the lifespan of the chip.
(§3) Compounds were also injected over the immobilised surfaces in the absence of S100A9 to exclude, or make possible correction for, any direct binding of compound to the surface.
(§4) Evaluation was carried out using BIAevaluation Software version 3.2 (GE Healthcare). The response at steady-state was obtained by fit of sensorgrams to standard binding models, where appropriate, or calculated as responses at late association or early dissociation phase using the Steady state affinity function in BIAevaluation. Affinity was determined from kinetic analysis (on- and off-rates) or as the apparent affinity after plotting responses versus concentration of analyte in a saturation curve. In the inhibition assay format, the competitor concentration yielding 50% inhibition (IC50) was calculated by fitting data to a one-site competition model in GraphPad Prism.

[2] = biological target: T2, human S100A9 binding to human TLR4/MD2 (Homo sapiens, UniProt P06702); assay: SPR: inhibition of human S100A9 binding to immobilised human TLR4/MD2; conditions: for pIC50: Table S1, read-out: S100A9 binding IC50, hS100A9 TLR4
T2 construct: purchased R&D Systems (TLR4/MD-2 complex); S100A9 made in house
T2 sequence (P06702 1-114): T1 sequence (P06702 1-114)
Description: as §1, §2, §3, §4

mS100A9 = biological target: T3, mS100A9 (Mus musculus, UniProt P31725); assay: SPR: inhibition of mouse S100A9 binding to immobilised ABR-224649; conditions: Table S1
T3 construct: made in house; host or cells: Escherichia coli (or purified from granulocytes)
T3 sequence (P31725 1-113): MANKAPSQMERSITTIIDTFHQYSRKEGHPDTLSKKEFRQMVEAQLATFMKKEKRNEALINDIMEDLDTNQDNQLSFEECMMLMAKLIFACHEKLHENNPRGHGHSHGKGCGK
Description: as §1, §2, §3, §4

mS100A9 and mRAGE/hFc = biological target: T4, mS100A9 and mRAGE/hFc (Mus musculus, UniProt P31725); assay: SPR: inhibition of mouse S100A9 binding to immobilised mouse RAGE; conditions: read-out: S100A9 binding IC50, mS100A9 RAGE; Table S1
T4 construct: purchased R&D Systems (mRAGE/Fc); S100A9 made in house
T4 sequence (P31725 2-113 limits assumed): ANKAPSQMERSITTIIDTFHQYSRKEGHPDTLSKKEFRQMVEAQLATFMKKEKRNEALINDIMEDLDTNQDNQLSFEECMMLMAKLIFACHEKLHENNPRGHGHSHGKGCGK
Description: as §1, §2, §3, §4

mS100A9 and mLPS-Trap = biological target: T5, mS100A9 and mLPS-Trap (Mus musculus, UniProt P31725); assay: SPR: inhibition of mouse S100A9 binding to immobilised mouse TLR4/MD2 fusion protein (mLPS-Trap); conditions: for pIC50: Table S1
T5 sequence (P31725 2-113 limits assumed): T4 sequence (P31725 2-113 limits assumed)
Description: as §1, §2, §3, §4

mS100A8/A9 and mRAGE = biological target: T6, mS100A8/A9 and mRAGE (Mus musculus, UniProt P31725); assay: SPR: inhibition of mouse S100A8/A9 binding to mouse RAGE; conditions: read-out: S100A8-9 binding IC50, mS100A8/A9 RAGE; Table S1
T6 construct: purchased R&D Systems (mRAGE/Fc); S100A8/A9 made in house
T6 sequence (P31725 2-113 limits assumed): T4 sequence (P31725 2-113 limits assumed)
T6 sequence (P27005 2-89 partner limits assumed): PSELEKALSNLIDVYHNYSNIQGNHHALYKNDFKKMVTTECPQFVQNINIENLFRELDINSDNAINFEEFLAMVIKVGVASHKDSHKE
Description: as §1, §2, §3, §4

mS100A8/A9 and mLPS-Trap = biological target: T7, mS100A8/A9 and mLPS-Trap (Mus musculus, UniProt P31725); assay: SPR: inhibition of mouse S100A8/A9 binding to mLPS-Trap; conditions: Table S1; read-out: S100A8-9 binding IC50, mS100A8/A9 TLR4
T7 sequence (P31725 2-113 limits assumed): T4 sequence (P31725 2-113 limits assumed)
Description: as §1, §2, §3, §4

[3] = tested on: aEAE development in SLJ/N mice; assay: acute experimental autoimmune encephalomyelitis (aEAE) in mice; format: in vivo, mouse
From the text: A training set of five quinoline derivatives with structural diversification performed at position 5 of the quinoline ring system was used for the SAR. PCA was used to uncover any relationship between the binding activities of the quinoline derivatives at the S100 proteins and the inhibitory effect of these derivatives in the aEAE model. PLS was then used to model the relationship between the physiochemical descriptors used to characterize the compounds and their biological responses. […] All variables were mean centred and scaled to unit variance.

human S100A9 = biological target: T8, human S100A9 (Homo sapiens, UniProt P06702); assay: SPR: human S100A9 binding to immobilised ABR-224649 (Q compound), direct binding and displacement
T8 construct: made in house; host or cells: Escherichia coli (or purified from granulocytes)
T8 sequence (P06702 1-114): T1 sequence (P06702 1-114)
Description: as §1, §2, §3, §4

## CCN(C(=O)c1c(O)c2ccccc2n(C)c1=O)c1ccccc1 [ABR-212662]
[1]
  pIC50: 3.36
[2]
  pIC50: 3.38
mS100A9
  pIC50: 2.71
mS100A9 and mRAGE/hFc
  pIC50: 2.99
mS100A9 and mLPS-Trap
  pIC50: 2.71
mS100A8/A9 and mRAGE
  pIC50: 3.14
mS100A8/A9 and mLPS-Trap
  pIC50: 3.24
[3]
  aEAE Inhibition ED50: 1.87 mg/kg

## CCN(C(=O)c1c(O)c2c(C)cccc2n(C)c1=O)c1ccccc1 [ABR-215111]
[1]
  pIC50: 3.77
[2]
  pIC50: 3.66
mS100A9
  pIC50: 2.87
mS100A9 and mRAGE/hFc
  pIC50: 3.11
mS100A9 and mLPS-Trap
  pIC50: 2.91
mS100A8/A9 and mRAGE
  pIC50: 3.51
mS100A8/A9 and mLPS-Trap
  pIC50: 3.53
[3]
  aEAE Inhibition ED50: 0.55 mg/kg

## CCN(C(=O)c1c(O)c2c(SC)cccc2n(C)c1=O)c1ccccc1 [ABR-215628]
[1]
  pIC50: 3.87
[2]
  pIC50: 3.81
mS100A9
  pIC50: 3.04
mS100A9 and mRAGE/hFc
  pIC50: 3.35
mS100A9 and mLPS-Trap
  pIC50: 3.11
mS100A8/A9 and mRAGE
  pIC50: 3.76
mS100A8/A9 and mLPS-Trap
  pIC50: 3.59
[3]
  aEAE Inhibition ED50: 0.20 mg/kg

## CCN(C(=O)c1c(O)c2c(C(F)(F)F)cccc2n(C)c1=O)c1ccccc1 [ABR-215629]
[2]
  pIC50: 4.10
mS100A9
  pIC50: 3.04
mS100A9 and mRAGE/hFc
  pIC50: 3.64
mS100A9 and mLPS-Trap
  pIC50: 3.13
mS100A8/A9 and mRAGE
  pIC50: 3.45
mS100A8/A9 and mLPS-Trap
  pIC50: 3.52
[3]
  aEAE Inhibition ED50: 0.13 mg/kg

## CCN(C(=O)c1c(O)c2c(Br)cccc2n(C)c1=O)c1ccccc1 [ABR-215727]
[1]
  pIC50: 4.10
[2]
  pIC50: 4.06
mS100A9
  pIC50: 3.28
mS100A9 and mRAGE/hFc
  pIC50: 3.72
mS100A9 and mLPS-Trap
  pIC50: 3.36
mS100A8/A9 and mRAGE
  pIC50: 3.79
mS100A8/A9 and mLPS-Trap
  pIC50: 3.70
[3]
  aEAE Inhibition ED50: 0.16 mg/kg

## CCc1cccc2c1c(O)c(C(=O)N(CCOCCN)c1ccccc1)c(=O)n2C [ABR-224649]
Human S100A9; coinjected with S100A9, unpublished data
  ability to displace S100A9 binding to immobilised ABR-224649: very similar ability to displace binding as ABR-215757
Human S100A9; steady-state responses vs 25–200 nM S100A9, 1 mM Ca2+, 10 μM Zn2+, read-out: half-maximal binding of S100A9 to immobilised ABR-224649
  pKd: 7.07

## lipopolysaccharide [LPS, reference compound]
[2]; 200 ng/ml
  effect on hS100A9 binding to immobilised hTLR4/MD2: no effect
mS100A9 and mLPS-Trap
  effect on mS100A9 binding to immobilised mLPS-Trap: no effect

Source: article PMC2671563 (PLoS Biology, 2009)
